Laboratory results: US11707474B2, “Methods for treating acute myeloid leukemia and related conditions” (GlycoMimetics, Inc., priority 2018, dated 2023)
Where “and” joins values, the source holds several entries; their conditions need not be identical. Equal values may be shown once.

Legend:
[1] = test system: acute myeloid leukemia (AML); assay: Clinical outcomes, newly diagnosed older AML subjects, sodium salt infusion with 7+3; format: in vivo, human; settings: newly diagnosed AML ≥60 y
Description: In this study, 25 human subjects who were newly diagnosed at age 60 or older with acute myeloid leukemia (AML) were selected for this study. Subjects were not disqualified for prior treatment or diagnosis for MDS or CMML.
Each subject received a total of 19 infusions of 10 mg/kg/dose of the compound of Formula (I), administered as the sodium salt, over 10 days with a nominal infusion duration of 20 minutes. The formulation for the infusion solution was as follows: […]
The first dose of a compound of Formula (I) was administered 24 hours±1 hour prior to the first dose of 7+3 (cytarabine and idarubicin) chemotherapy as a sentinel dose to evaluate the effect of the compound of Formula (I) alone (i.e., a single dose of 10 mg/kg the day before the first chemotherapy day). The compound of Formula (I) was then administered every 12 hours±1 hour on chemotherapy days (i.e., 20 mg/kg per day on chemotherapy days) and for two days following the last dose of chemotherapy. […] 7+3 (cytarabine and idarubicin) chemotherapy was administered on Days 2-8 comprising a continuous IV infusion of cytarabine 100 mg/m^2/d over seven days (168 hours, from days 2-8), and idarubicin 12 mg/m^2/d IV for the first three consecutive days ([…], from days 2-4).
The clinical outcome for each subject was assessed at the time of count recovery following completion of induction chemotherapy. Subjects were assigned to one of four response groups: complete remission (“CR”); complete remission with incomplete count recovery (“CRi”); morphologic leukemia-free state (“MLFS”); persistent disease (“PD”). Complete remission was defined as bone marrow blasts <5%; absence of circulating blasts and blasts with Auer rods; absence of extramedullary disease; ANC ≥1.0×10^9/L and platelets ≥100,000×10^9/L. Complete remission with incomplete recovery was defined as: all CR criteria except for residual neutropenia (<1.0×10^9/L) or thrombocytopenia (<100,000×10^9/L). Morphologic leukemia-free state was defined as: bone marrow blasts <5%; absence of blasts with Auer rods; absence of extramedullary disease; no hematologic recovery required. Persistent disease was defined as: bone marrow blasts >5%.

[2] = test system: sE-selectin; assay: Plasma soluble E-selectin ELISA during treatment; format: in vivo, human; settings: individual subjects; for sE-selectin AUEC Day 3 / sE-selectin AUEC Day 8 / sE-selectin AUEC Percent Change from Day 1, Day 3 / sE-selectin AUEC Percent Change from Day 1, Day 8: with MEC
Description: Plasma sE-selectin was quantified using a commercially available sandwich format ELISA assay, in which a monoclonal antibody specific for sE-selectin has been pre-coated onto a microplate (Human sE-Selectin Platinum ELISA kit, eBioscience, cat. no. BMS205). Standards, samples and controls were pipetted into the wells of the microplate where they bind to the antibodies coated on the microplate. After a wash step, an HRP-conjugated anti-human sE-selectin antibody was added to the wells to bind the sE-selectin captured by the first antibody. After washing the plate wells to remove unbound HRP-conjugated anti-human sE-selectin antibody, a substrate solution reactive with HRP is added to the wells. Colored product formed in proportion to the amount of human sE-selectin present in the sample or standard. The color-producing reaction was stopped by addition of acid and absorbance of each well was measured at 450 nm. Six human serum samples from healthy donors served as the quality control samples. In addition, two control lyophilized plasma samples (high and low) included with the assay kit were also added to each run.
This response was seen both in mean levels and Area-Under-Effect-Curve (“AUEC”). Decrease from baseline to Day 8 (at the end of 6 days of treatment with a compound of Formula (I), given concurrently with MEC chemotherapy) was highly significant (P<0.0001) with no dose response. FIG. 11 illustrates decreasing mean levels of plasma soluble E-selectin over the treatment period in all dose groups, where doses were BID (i.e., the 5, 10, and 20 mg/kg “Per Dose” amounts of a compound of Formula (I) correspond to dosages of 10, 20, and 40 mg/kg per day, respectively).

[3] = test system: KG1 cells; assay: Static adhesion of KG1 cells to E-selectin coated plates; format: cell-based, human; settings: added post-binding of 5-azacytidine treated KG1 cells
Excerpt: These findings indicate that hypomethylating agents, including 5-azacytidine, may increase the adhesion of leukemic blasts in the bone marrow and therefore hinder the intended anti-leukemic effect. This could explain a source of chemoresistance, and potential for relapse, in patients treated with hypomethylating agents.

[4] = Exposure-response analysis for adverse events; format: in vivo, human; settings: 53 R/R and 25 newly diagnosed older AML subjects, with chemotherapy
Description: For Example 15, Exposure-Response (“E-R”) analysis evaluating adverse events against PK metrics was conducted. The sample population for Example 15 included 53 subjects with relapsed/refractory (R/R) AML and 25 older subjects (aged 60 years or older) with newly diagnosed AML. R/R AML subjects were administered MEC chemotherapy and 5, 10, and 20 mg/kg of a compound of Formula (I) BID (i.e., 10, 20, and 40 mg/kg per day). The older subjects (aged 60 years or older) with newly diagnosed AML were administered 7+3 chemotherapy and 10 mg/kg of a compound of Formula (I) BID (i.e., 20 mg/kg per day).
Exposure metrics for the adverse events (“AE”) analysis were generated using the same Pop-PK model described in Example 14. […] Cumulative AUC was determined through each study day. For each metric/day combination, percentile rankings and normalized values were determined. For example, the median of Day 6 AUC values was determined, and normalized values were obtained by dividing each value by the median. In addition, these Day 6 AUC values were ranked, and then multiplied by 100% divided by the number of values to obtain a percentile value.
Adverse events (“AEs”) were classified according the Common Terminology Criteria for Adverse Events (“CTCAE”). […]

CC[C@@H]1CC(C(=O)NCCNC(=O)CCOCCOCCOCCOCCOCCOCCOCCOCCOCCOCCOCCOC)C[C@@H](O[C@@H]2O[C@@H](CO)[C@H](O)C(O[C@@H](CC3CCCCC3)C(=O)O)C2NC(C)=O)C1OC1O[C@@H](C)C(O)[C@H](O)[C@@H]1O (some centres unmarked) [compound of Formula (I)]
one-year overall survival rate, all subjects [1]: 52%
one-year survival rate, MRD negative subjects [1]: 60%
severe oral mucositis rate [1]: 0%
median event-free survival ([1]; 95% CI 3-12.6): 9.2 months
median overall survival ([1]; 95% CI lower 9.9): 12.6 months
Oral Mucositis Events Grades 3/4 ([1]; N = 25): 0 n
sE-selectin AUEC Day 1 ([2]; 5 mg/kg per dose): 563.47 hrxng/mL and 1,605.18 hrxng/mL and 339.27 hrxng/mL and 328.40 hrxng/mL
sE-selectin AUEC Day 3 ([2]; 5 mg/kg per dose): 494.30 hrxng/mL and 1,445.26 hrxng/mL and 275.71 hrxng/mL and 332.11 hrxng/mL
sE-selectin AUEC Day 8 ([2]; 5 mg/kg per dose): 440.68 hrxng/mL and 728.47 hrxng/mL and 156.25 hrxng/mL and 161.11 hrxng/mL
sE-selectin AUEC Percent Change from Day 1, Day 3 ([2]; 5 mg/kg per dose): −12.28% and −9.96% and −18.74% and 1.13%
sE-selectin AUEC Percent Change from Day 1, Day 8 ([2]; 5 mg/kg per dose): −21.79% and −54.62% and −53.95% and −50.94%
sE-selectin AUEC Day 1 ([2]; 10 mg/kg per dose): 338.36 hrxng/mL and 707.63 hrxng/mL and 325.19 hrxng/mL and 269.90 hrxng/mL and 230.35 hrxng/mL
sE-selectin AUEC Day 3 ([2]; 10 mg/kg per dose): 313.04 hrxng/mL and 981.09 hrxng/mL and 298.31 hrxng/mL and 202.99 hrxng/mL and 185.98 hrxng/mL
sE-selectin AUEC Day 8 ([2]; 10 mg/kg per dose): 168.71 hrxng/mL and 218.03 hrxng/mL and 25.51 hrxng/mL and 103.74 hrxng/mL and 158.91 hrxng/mL
sE-selectin AUEC Percent Change from Day 1, Day 3 ([2]; 10 mg/kg per dose): −7.48% and 38.64% and −8.26% and −24.79% and −19.26%
sE-selectin AUEC Percent Change from Day 1, Day 8 ([2]; 10 mg/kg per dose): −50.14% and −69.19% and −92.15% and −61.57% and −31.01%
sE-selectin AUEC Day 1 ([2]; 20 mg/kg per dose): 2,206.19 hrxng/mL and 750.41 hrxng/mL and 202.19 hrxng/mL
sE-selectin AUEC Day 3 ([2]; 20 mg/kg per dose): 1,743.61 hrxng/mL and 632.82 hrxng/mL and 163.18 hrxng/mL
sE-selectin AUEC Day 8 ([2]; 20 mg/kg per dose): 956.57 hrxng/mL and 294.47 hrxng/mL and 31.49 hrxng/mL
sE-selectin AUEC Percent Change from Day 1, Day 3 ([2]; 20 mg/kg per dose): −20.97% and −15.67% and −19.30%
sE-selectin AUEC Percent Change from Day 1, Day 8 ([2]; 20 mg/kg per dose): −56.64% and −60.76% and −84.43%
uncoupling of adhesion [3]: ~90%
adverse events vs exposure (AUC, cumulative AUC, Cmax) [4]: no strong tendency toward increased AEs, nor increased severity of AEs with exposure
